This is an account of results in paper PMC6257627, “Target Validation and Identification of Novel Boronate Inhibitors of the Plasmodium falciparum Proteasome” (Journal of Medicinal Chemistry, 2018).

Each structure is given as a SMILES string. pKi: −log10 of the molar value.

The subject of assay [1] is P. falciparum proteasome activity in cells (GFP-DD transfectants). Nature of the assay: GFP-DD reporter degradation in transfectants (Western blot, flow cytometry). Format: cell-based. The following applies: trophozoites, 3 h exposure. As to the method:
(§1) Figure 1 Structures, proteasome inhibition, and isobologram analysis of selected compounds. (A) Structures of MPI-1, MPI-2, MPI-3, and MPI-4 (compounds 1–4). (B) GFP-DD transfectants were maintained in Shield-1 for 24 h before wash-out prior to setting up experiments. Trophozoites were re-exposed to Shield-1 or exposed to indicated compounds for 3 h. Results are representative of four independent experiments. (i) Cell extracts were analyzed by Western blot using anti-GFP or anti-PfBiP as a loading control. (ii) GFP fluorescence measured by flow cytometry. Dotted line represents background (fluorescence of sample after washout of Shield-1). Data are the mean ± range/2 for the readings in technical duplicate from one experiment. Curves are fitted with the sigmoidal four-parameter model. (C) Isobologram analysis of the interaction of test compounds and DHA. Cam3.II (DHA resistant) parasites at very early ring stages were subjected to 3 h pulses in the presence of different combinations of DHA and test compounds. […]
Trophozoite-stage parasite cultures (GFP-DD parasites) at 5% hematocrit and 5% parasitemia were subjected to the drug treatment indicated in the figure legends at 37 °C. […] Syto-61 and GFP fluorescence was recorded using the FACSCanto II cytometer (Becton Dickinson). […] Parasites were gated based on parasite GFP fluorescence, and values reported are mean fluorescence. […]
For orientation: Immunoblotting shows a protein as a band on a membrane.

In assay [2] the test system is Cam3.II^R539T early ring stages. Nature of the assay: Isobologram analysis of interaction with DHA, 3 h pulse. Type of assay: cell-based, P. falciparum. As to conditions: early ring stages of K13 mutant Cam3.II^R539T, 3 h pulses. As to the method: as §1, with “experiment.” for “experiment. Curves are fitted with the sigmoidal four-parameter model. (C) Isobologram analysis of the interaction of test compounds and DHA. Cam3.II (DHA resistant) parasites at very early ring stages were subjected to 3 h pulses in the presence of different combinations of DHA and test compounds.”
For standard assays of antiplasmodial activity, sorbitol-treated ring stage parasites were incubated with the drugs for 72 h and viability was assessed in the second cycle.[12] […] Cells were then stained with 2 μM Syto-61 (Thermo Fisher Scientific), and their fluorescence was measured by flow cytometry (FACSCanto II cytometer; Becton Dickinson). Data were gated and analyzed using FCS Express software (version 3) to determine parasitemia of each sample. […] Interactions between DHA and MPI-1 or MPI-4 against the K13 mutant (DHA resistant) Cam3.II P. falciparum strain, exposed to a 3 h pulsed treatment, were determined at 4 h after invasion as described previously.[12]

For assay [3], the target named is human constitutive 20S proteasome β2c (Homo sapiens, UniProt P49720+Q99436). Briefly: Kinetic analysis, human constitutive 20S β2 (Ac-RQR-AMC). Type of assay: biochemical. The following applies: Figure S3A. As to the method: (§2) Figure S 3. Kinetic analysis of MPI -4 against Pf20S and human constitutive 20S proteasome.
(§3) The association rate K on, half -life t 1/2 and equilibrium constant Ki for MPI -4 against human constitutive 20S (A, B) and Pf20S (C, D). 20S β2 (A, C) and β5 (B, D) activities were determined using fluorogenic substrates, Ac -RQR-AMC (human) or Ac -WLR-AMC ( P. falciparum ) and Ac - […]

For assay [4], the target named is T1, human constitutive 20S proteasome β5c (Homo sapiens, UniProt P20618+P28074).
T1 construct: Residue positions are calculated at the start of the processed protein, and the first residue (Thr 1)
Nature of the assay: Kinetic analysis, human constitutive 20S β5 (Ac-WLA-AMC). As to conditions: Figure S3B. Type of assay: biochemical. As to the method: as §2, §3

The next assay deals with Pf20S β2 (Plasmodium falciparum, UniProt Q8I261+Q8I6T3). Briefly: Kinetic analysis, Pf20S β2 (Ac-WLR-AMC). The following applies: Figure S3C. Format: biochemical, P. falciparum. The protocol:
as §2, §3

The target of the next assay is Pf20S β5 (Plasmodium falciparum, UniProt A0A5K1K7U1+Q8IJT1). Nature of the assay: Kinetic analysis, Pf20S β5 (Ac-WLA-AMC). As to conditions: Figure S3D. Type of assay: biochemical, P. falciparum. As to the method: as §2, §3
For another assay, the system named is 3D7 B2a. Briefly: 72 h viability assay, bortezomib-resistant clone B2a. The following applies: mean ± SEM, n=3. Type of assay: cell-based, Plasmodium falciparum. As to the method:
For standard assays of antiplasmodial activity, sorbitol-treated ring stage parasites were incubated with the drugs for 72 h and viability was assessed in the second cycle.[12] Drug pulse assays were performed as described previously.[47] For short pulse assays, tightly synchronized early ring stage parasites (1–3 h after invasion) at 0.2% hematocrit and 1–2% parasitemia were subjected to 3 h drug pulse at 37 °C and returned to culture until parasites reached trophozoite stage of the following cycle. Cells were then stained with 2 μM Syto-61 (Thermo Fisher Scientific), and their fluorescence was measured by flow cytometry (FACSCanto II cytometer; Becton Dickinson). Data were gated and analyzed using FCS Express software (version 3) to determine parasitemia of each sample. Viability represents the parasitemia normalized to untreated and “kill treated” controls, where “kill treated” refers to samples treated with 2 μM DHA for 48–72 h. Interactions between DHA and MPI-1 or MPI-4 against the K13 mutant (DHA resistant) Cam3.II P. falciparum strain, exposed to a 3 h pulsed treatment, were determined at 4 h after invasion as described previously.[12]
Prior to selection, an aliquot of the parental line was stocked as a reference for subsequent whole genome sequencing analysis. […] Paired-end reads were either aligned to the P. falciparum 3D7 reference genome (PlasmoDB version 13.0).

In assay [5] the test system is Cam3.II^R539T early ring stages. On the set-up: method as in PMID 25901609. The following applies: P. falciparum in culture; cited from earlier work.

Sequence of Pf20S β5 (Q8IJT1 entry or part of it): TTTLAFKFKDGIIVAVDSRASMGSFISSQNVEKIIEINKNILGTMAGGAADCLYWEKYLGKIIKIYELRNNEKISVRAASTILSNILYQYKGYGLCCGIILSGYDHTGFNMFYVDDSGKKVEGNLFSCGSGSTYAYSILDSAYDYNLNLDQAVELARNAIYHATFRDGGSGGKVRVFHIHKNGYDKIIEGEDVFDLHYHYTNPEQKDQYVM
Sequence of Pf20S β5 (A0A5K1K7U1 entry or part of it): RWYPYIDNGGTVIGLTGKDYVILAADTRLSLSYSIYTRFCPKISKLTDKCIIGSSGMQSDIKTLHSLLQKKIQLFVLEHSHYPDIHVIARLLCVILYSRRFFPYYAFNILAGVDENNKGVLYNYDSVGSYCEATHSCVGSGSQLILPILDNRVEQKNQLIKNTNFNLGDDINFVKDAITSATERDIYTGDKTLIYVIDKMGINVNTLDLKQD
Sequence of Pf20S β2 (Q8I6T3 entry or part of it): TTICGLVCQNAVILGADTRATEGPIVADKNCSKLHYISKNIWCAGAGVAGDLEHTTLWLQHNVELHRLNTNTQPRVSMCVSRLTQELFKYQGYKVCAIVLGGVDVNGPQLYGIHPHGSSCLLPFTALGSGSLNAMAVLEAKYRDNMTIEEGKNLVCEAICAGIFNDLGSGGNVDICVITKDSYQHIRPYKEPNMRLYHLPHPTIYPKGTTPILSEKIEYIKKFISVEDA
Sequence of Pf20S β2 (Q8I261 entry or part of it): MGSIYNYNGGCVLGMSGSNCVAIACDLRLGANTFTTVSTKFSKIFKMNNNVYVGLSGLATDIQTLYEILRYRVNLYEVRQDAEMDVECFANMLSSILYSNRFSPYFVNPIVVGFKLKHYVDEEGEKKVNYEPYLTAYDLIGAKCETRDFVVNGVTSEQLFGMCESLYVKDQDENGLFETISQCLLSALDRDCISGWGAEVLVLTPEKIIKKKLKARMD

For `CC(=O)N1CCC[C@@H]1C(=O)N[C@@H](C)C(=O)N[C@@H](Cc1ccccc1)B(O)O` [MPI-1], the “inhibition of GFP-DD degradation in the absence of Shield-1” value in assay [1] is listed as “a higher concentration of MPI-1 was needed to produce the same level of inhibition”. Also, the “interaction with DHA” value in assay [2] is “pronounced synergistic interaction”.
Take `CC(C)C[C@H](NC(=O)[C@H](Cc1ccccc1)NC(=O)Cc1ccc(O)cc1)B(O)O` [MPI-4]: the koff in assay [3] (read-out: Koff, h20S β2) worked out at 0.00485 s⁻¹; in assay [4] (read-out: Koff, h20S β5) it was 0.000109 s⁻¹; at Pf20S β2 (read-out: Koff, Pf 20S β2), 0.000173 s⁻¹; on Pf20S β5 (read-out: Koff, Pf 20S β5), 0.000181 s⁻¹. Also, the kon is 9960 M⁻¹ s⁻¹ in assay [3] (read-out: association rate Kon, h20S β2); 848000 M⁻¹ s⁻¹ in assay [4] (read-out: association rate Kon, h20S β5); 27200 M⁻¹ s⁻¹ on Pf20S β2 (read-out: association rate Kon, Pf 20S β2); 41800 M⁻¹ s⁻¹ at Pf20S β5 (read-out: association rate Kon, Pf 20S β5). Also, the pKi was 6.31 in assay [3] (equilibrium constant); 10.00 in assay [4] (equilibrium constant); approximately 8.30 on Pf20S β2 (equilibrium constant, read-out: Ki, P. falciparum β2); approximately 8.30 on Pf20S β5 (equilibrium constant, read-out: Ki, P. falciparum β5). Besides, in assay [2], the “interaction with DHA” value is listed as “pronounced synergistic interaction”.
On to `CC(C)C[C@H](NC(=O)[C@H](Cc1ccccc1)NC(=O)c1cnccn1)B(O)O` [bortezomib, reference compound], for which, in the assay on 3D7 B2a, the “LD50 (72 h), 3D7 B2a” value came out at 1.1 ± 0.1 µM. Besides, the “inhibition of GFP-DD degradation in the absence of Shield-1” value in assay [1] is “prevented GFP-DD degradation”. For the same molecule, the “interaction with DHA (earlier work)” value in assay [5] is given as “strong synergism”.

For orientation: koff means the rate constant with which the complex falls apart. By kon is commonly meant the second-order rate constant of association. Broadly, the pKi is −log10 of the Ki, conventionally taken in molar units.
